Laboratory results taken from US20230242552A1, “Nitrogen-Containing Heterocyclic Compound, Preparation Method Therefor and Use Thereof” (280 Bio, Inc, priority 2022, published 2023).
pIC50: −log10 of the molar value.

How the values were obtained:
Conditions in all cases: CellTiter Glo, 120 hours incubation
[1] = tested on: SW480 (colon cancer cell lines with KRAS G12V mutation); test: Proliferation inhibition measured by CTG, SW480; assay type: cell-based
Experimental: (§1) NCI-H358 is a human non-small cell lung cancer cell line with KRAS G12C mutation; AGS is a gastric cancer cell line with KRAS G12D mutation; SW480 is a colon cancer cell lines with KRAS G12V mutation; A375 is a wild type malignant melanoma cell line. The proliferation inhibitory effect of the compounds on various mutations was evaluated by determining the proliferation inhibitory activity of the compounds on these cell lines.
(§2) The assay was conducted on either 384-well plates or 96-well plates. The procedures are as follows:
(§3) The cell suspensions were added to 384- or 96-well plates (384-well plate: 40 μL; 96-well plate: 100 μL) except for peripheral wells. The plates were incubated in a carbon dioxide incubator overnight. Prepared compounds (10 concentration gradients by serial 3-fold dilution) were added to the wells. The cell plates were incubated in a carbon dioxide incubator for 120 hours. CellTiter Glo reagent (384 well plate: 25 μL; 96 well plate: 100 μL) was added to the 384- or 96-well plates. The plates were shaken for 10 minutes away from light, and incubated for 10 minutes. The plates were read by EnVision system. Inhibition curves were plotted using XLFit and IC50 values were calculated. “IC50>10 μM” is denoted by “*”, “10 μM≥IC50>1 μM” is denoted by […] is denoted by “***”, “---” means no data.

[2] = tested on: AGS (gastric cancer cell line with KRAS G12D mutation); test: Proliferation inhibition measured by CTG, AGS; assay type: cell-based
Experimental: as §1, §2, §3

[3] = tested on: A375 (wild type malignant melanoma cell line); test: Proliferation inhibition measured by CTG, A375; assay type: cell-based
Experimental: as §1, §2, §3

[4] = tested on: NCI-H358 (KRAS G12C mutation); test: Proliferation inhibition measured by CTG, NCI-H358; assay type: cell-based, human
Experimental: as §1, §2, §3

Row | SMILES | pIC50 [1] | pIC50 [2] | pIC50 ([3]; Homo sapiens, A-375, 120 h) | pIC50 ([4]; Homo sapiens, NCI-H358, 120 h) | pIC50 [3] | pIC50 [4] | pIC50 ([2]; 120 h) | pIC50 ([1]; Homo sapiens, SW480, 120 h)
1 | CN1CCC[C@H]1COc1nc2c(c(N3CCc4cnccc4C3)n1)CCN(c1cccc3cccc(Cl)c13)C2 [Compound 1] | – | – | ≥ 6.00 | ≥ 6.00 | – | – | – | –
2 | COc1cc2c(cn1)CCN(c1nc(OC[C@@H]3CCCN3C)nc3c1CCN(c1cccc4cccc(Cl)c14)C3)C2 [Compound 2] | – | – | 5.00 to 6.00 | 5.00 to 6.00 | – | – | 5.00 to 6.00 | –
3 | CC1Cc2cnccc2CN1c1nc(OC[C@@H]2CCCN2C)nc2c1CCN(c1cccc3cccc(Cl)c13)C2 (some centres unmarked) [Compound 3] | ≥ 6.00 | ≥ 6.00 | – | – | ≥ 6.00 | ≥ 6.00 | – | –
4 | CC1Cc2cncc(F)c2CN1c1nc(OC[C@@H]2CCCN2C)nc2c1CCN(c1cccc3cccc(Cl)c13)C2 (some centres unmarked) [Compound 4] | – | – | – | – | – | – | ≥ 6.00 | ≥ 6.00
5 | CC1Cc2cncc(F)c2CN1c1nc(OC[C@@H]2CCCN2C)nc2c1CCN(c1cc(O)cc3cccc(Cl)c13)C2 (some centres unmarked) [Compound 5] | – | – | – | – | – | – | ≥ 6.00 | ≥ 6.00
6 | CC1Cc2cnccc2CN1c1nc(OC[C@@H]2CCCN2C)nc2c1CCN(c1cc(O)cc3cccc(Cl)c13)C2 (some centres unmarked) [Compound 6] | – | – | – | – | – | – | ≥ 6.00 | ≥ 6.00
7 | C#Cc1c(F)ccc2cc(O)cc(N3CCc4c(nc(OC[C@@H]5CCCN5C)nc4N4Cc5c(F)cncc5CC4C)C3)c12 (some centres unmarked) [Compound 7] | – | – | 5.00 to 6.00 | 5.00 to 6.00 | – | – | ≥ 6.00 | 5.00 to 6.00
8 | CC1Cc2cncc(F)c2CN1c1nc(OC[C@@H]2CCCN2C)nc2c1CO[C@H](c1cccc3cccc(Cl)c13)C2 (some centres unmarked) [Compound 11] | – | – | 5.00 to 6.00 | 5.00 to 6.00 | – | – | ≥ 6.00 | –
9 | C[C@H]1Cc2cncc(F)c2CN1c1nc(OC[C@@H]2CCCCN2C)nc2c1CCN(c1cccc3cccc(F)c13)C2 [Compound 12] | – | – | ≥ 6.00 | ≥ 6.00 | – | – | ≥ 6.00 | ≥ 6.00
10 | C[C@H]1Cc2cncc(F)c2CN1c1nc(OC[C@@H]2CCCN2C)nc2c1CCN(c1cncc3ccccc13)C2 [Compound 13] | – | – | < 5.00 | 5.00 to 6.00 | – | – | 5.00 to 6.00 | 5.00 to 6.00
11 | C[C@H]1Cc2cncc(F)c2CN1c1nc(OC[C@@H]2CCCN2C)nc2c1CCN(c1cccc3ncccc13)C2 [Compound 14] | – | – | 5.00 to 6.00 | 5.00 to 6.00 | – | – | 5.00 to 6.00 | 5.00 to 6.00
12 | C[C@H]1Cc2cncc(F)c2CN1c1nc(OC[C@@H]2CCCN2C)nc2c1CCN(c1cccc3cccc(F)c13)C2 [Compound 15] | – | – | 5.00 to 6.00 | ≥ 6.00 | – | – | ≥ 6.00 | ≥ 6.00
13 | C[C@H]1Cc2cncc(F)c2CN1c1nc(OC[C@@H]2CCCN2C)nc2c1CCN(c1ccnc3ccccc13)C2 [Compound 16] | – | – | 5.00 to 6.00 | 5.00 to 6.00 | – | – | 5.00 to 6.00 | 5.00 to 6.00
14 | C[C@H]1Cc2cncc(F)c2CN1c1nc(OC[C@@H]2CCCN2C)nc2c1CCN(c1cccc3cccnc13)C2 [Compound 17] | – | – | 5.00 to 6.00 | ≥ 6.00 | – | – | ≥ 6.00 | ≥ 6.00
15 | C[C@H]1Cc2cncc(F)c2CN1c1nc(OC[C@@H]2CCCN2C)nc2c1CCN(c1cccc3ccncc13)C2 [Compound 18] | – | – | 5.00 to 6.00 | 5.00 to 6.00 | – | – | 5.00 to 6.00 | 5.00 to 6.00
16 | C[C@H]1Cc2cncc(F)c2CN1c1nc(OC[C@@H]2CCCN2C)nc2c1CCN(c1cccc3cnccc13)C2 [Compound 19] | – | – | < 5.00 | 5.00 to 6.00 | – | – | 5.00 to 6.00 | 5.00 to 6.00
17 | C[C@H]1Cc2cncc(F)c2CN1c1nc(OC[C@@H]2CCCN2C)nc2cc(-c3cccc4cccc(Cl)c34)ccc12 [Compound 20] | – | – | 5.00 to 6.00 | 5.00 to 6.00 | – | – | ≥ 6.00 | ≥ 6.00
18 | C[C@H]1Cc2cncc(F)c2CN1c1nc(OC[C@@H]2CCCN2C)nc2cc(-c3cccc4cccc(F)c34)ccc12 [Compound 21] | – | – | 5.00 to 6.00 | 5.00 to 6.00 | – | – | ≥ 6.00 | 5.00 to 6.00
19 | C[C@H]1Cc2cncc(F)c2CN1c1nc(OC[C@H]2CCCN2C)nc2c1CCN(c1cccc3cccc(F)c13)C2 [Compound 22] | – | – | 5.00 to 6.00 | ≥ 6.00 | – | – | ≥ 6.00 | ≥ 6.00
20 | C[C@H]1Cc2cncc(F)c2CN1c1nc(OC[C@H]2CCCCN2C)nc2c1CCN(c1cccc3cccc(F)c13)C2 [Compound 23] | – | – | 5.00 to 6.00 | 5.00 to 6.00 | – | – | ≥ 6.00 | 5.00 to 6.00
21 | C[C@H]1Cc2cncc(F)c2CN1c1nc(OC[C@H]2COCCN2C)nc2c1CCN(c1cccc3cccc(F)c13)C2 [Compound 24] | – | – | < 5.00 | 5.00 to 6.00 | – | – | 5.00 to 6.00 | 5.00 to 6.00
22 | C[C@H]1Cc2cncc(F)c2CN1c1nc(OC[C@@H]2CN(C)CCN2C)nc2c1CCN(c1cccc3cccc(F)c13)C2 [Compound 25] | – | – | 5.00 to 6.00 | 5.00 to 6.00 | – | – | 5.00 to 6.00 | 5.00 to 6.00
23 | C[C@@H](CN(C)C)Oc1nc2c(c(N3Cc4c(F)cncc4C[C@@H]3C)n1)CCN(c1cccc3cccc(F)c13)C2 [Compound 26] | – | – | 5.00 to 6.00 | 5.00 to 6.00 | – | – | 5.00 to 6.00 | 5.00 to 6.00
24 | C[C@@H]1Cc2cncc(F)c2CN1c1nc(OC[C@@H]2CCCN2C)nc2cc(-c3ccc(F)c4sc(N)nc34)ccc12 [Compound 27] | – | – | ≥ 6.00 | ≥ 6.00 | – | – | ≥ 6.00 | ≥ 6.00
25 | C[C@@H]1Cc2cncc(F)c2CN1c1nc(OC[C@@H]2CCCCN2C)nc2c1CCN(c1cccc3cccc(F)c13)C2 [Compound 28] | – | – | ≥ 6.00 | ≥ 6.00 | – | – | ≥ 6.00 | ≥ 6.00
26 | C[C@@H]1Cc2cncc(F)c2CN1c1nc(O[C@@H](C)CN(C)C)nc2c1CCN(c1cccc3cccc(F)c13)C2 [Compound 29] | – | – | 5.00 to 6.00 | ≥ 6.00 | – | – | ≥ 6.00 | ≥ 6.00
27 | C[C@@H]1Cc2cncc(F)c2CN1c1nc(OC[C@H]2CCCCN2C)nc2c1CCN(c1cccc3cccc(F)c13)C2 [Compound 30] | – | – | ≥ 6.00 | ≥ 6.00 | – | – | ≥ 6.00 | ≥ 6.00
28 | C[C@@H]1Cc2cncc(F)c2CN1c1nc(OC[C@@H]2CCCN2C)nc2c1CCN(c1cncc3cccc(Cl)c13)C2 [Compound 34] | – | – | ≥ 6.00 | – | – | – | ≥ 6.00 | –
29 | C[C@@H]1Cc2cncc(F)c2CN1c1nc(OC[C@@H]2CCCN2C)nc2c1CCN(c1cccc3cccc(F)c13)C2 [Compound 35] | – | – | ≥ 6.00 | – | – | – | ≥ 6.00 | –
30 | C[C@@H]1Cc2cncc(F)c2CN1c1nc(OC[C@@H]2CCCCN2C)nc2c(F)c(-c3cccc4cccc(F)c34)ncc12 [Compound 36] | – | – | – | – | – | – | ≥ 6.00 | –

More lines, now with the values ahead:

Row | pIC50 [1] | pIC50 [2] | pIC50 ([3]; Homo sapiens, A-375, 120 h) | pIC50 ([4]; Homo sapiens, NCI-H358, 120 h) | pIC50 [3] | pIC50 [4] | pIC50 ([2]; 120 h) | pIC50 ([1]; Homo sapiens, SW480, 120 h) | SMILES
31 | 5.00 to 6.00 | ≥ 6.00 | 5.00 to 6.00 | 5.00 to 6.00 | – | – | – | – | CC1Cc2cncc(F)c2CN1c1nc(OC[C@@H]2CCCN2C)nc2c1CCN(c1cccc3cccc(Cl)c13)C2 (single isomer, unassigned) [Compound 4-1]
32 | ≥ 6.00 | ≥ 6.00 | – | – | ≥ 6.00 | ≥ 6.00 | – | – | CC1Cc2cncc(F)c2CN1c1nc(OC[C@@H]2CCCN2C)nc2c1CCN(c1cccc3cccc(Cl)c13)C2 (single isomer, unassigned) [Compound 4-2]
33 | – | 5.00 to 6.00 | – | – | 5.00 to 6.00 | 5.00 to 6.00 | – | – | CC1Cc2cncc(F)c2CN1c1nc(OC[C@@H]2CCCN2C)nc2c1CO[C@H](c1cccc3cccc(Cl)c13)C2 (single isomer, unassigned) [Compound 11-1]
34 | – | ≥ 6.00 | – | – | 5.00 to 6.00 | 5.00 to 6.00 | – | – | CC1Cc2cncc(F)c2CN1c1nc(OC[C@@H]2CCCN2C)nc2c1CO[C@H](c1cccc3cccc(Cl)c13)C2 (single isomer, unassigned) [Compound 11-2]
35 | – | – | 5.00 to 6.00 | 5.00 to 6.00 | – | – | 5.00 to 6.00 | 5.00 to 6.00 | CC1Cc2cnccc2CN1c1nc(OC[C@@H]2CCCN2C)nc2c1CCN(c1cccc3cccc(Cl)c13)C2 (some centres unmarked) [Compound 3-1]
36 | ≥ 6.00 | ≥ 6.00 | – | – | ≥ 6.00 | ≥ 6.00 | – | – | CC1Cc2cnccc2CN1c1nc(OC[C@@H]2CCCN2C)nc2c1CCN(c1cccc3cccc(Cl)c13)C2 (some centres unmarked) [Compound 3-2]
37 | – | – | ≥ 6.00 | ≥ 6.00 | – | – | – | – | CC1Cc2cncc(F)c2CN1c1nc(OC[C@@H]2CCCN2C)nc2c1CCN(c1cc(O)cc3cccc(Cl)c13)C2 (some centres unmarked) [Compound 5-1]
38 | – | – | – | – | ≥ 6.00 | ≥ 6.00 | – | – | CC1Cc2cncc(F)c2CN1c1nc(OC[C@@H]2CCCN2C)nc2c1CCN(c1cc(O)cc3cccc(Cl)c13)C2 (some centres unmarked) [Compound 5-2]
39 | – | – | ≥ 6.00 | ≥ 6.00 | – | – | ≥ 6.00 | ≥ 6.00 | CC1Cc2cncc(F)c2CN1c1nc(OC[C@@H]2CCCCN2C)nc2c1CCN(c1cccc3cccc(Cl)c13)C2 (some centres unmarked) [Compound 9-1]
40 | ≥ 6.00 | ≥ 6.00 | – | – | ≥ 6.00 | ≥ 6.00 | – | – | CC1Cc2cncc(F)c2CN1c1nc(OC[C@@H]2CCCCN2C)nc2c1CCN(c1cccc3cccc(Cl)c13)C2 (some centres unmarked) [Compound 9-2]
